Test results as given in patent US20230057568A1, “COMPOUNDS FOR TREATING FAMILIAL DYSAUTONOMIA” (PTC THERAPEUTICS, INC., priority 2019, published 2023).

Test system: Elongator complex protein 1 (ELP1, also referred to as IKBKAP)
Test: IKBKAP-HTRF Assay
Type: cell-based, human
Details: FD patient-derived fibroblasts GM04589, 48 hours incubation; for EC2x for IKBKAP protein expression (concentration producing two times the amount of IKBKAP protein vs DMSO vehicle control): 7-point concentration curve; for MFI (maximum fold increase in IKBKAP protein abundance relative to the vehicle control): HTRF
Outline: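 Sandwich HTRF (anti-IKAP d2 and K(9+8)) on cell lysates measured IKBKAP protein after overnight 4 °C incubation, read at 665 and 620 nm. Lysates came from FD patient cells exposed 48 hours to 7-point compound dilutions, in triplicate. Outputs: maximum fold increase over vehicle, and EC2× (the concentration giving twice the DMSO-control protein level).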

| SMILES | EC2x for IKBKAP protein expression (concentration producing two times the amount of IKBKAP protein vs DMSO vehicle control) | MFI (maximum fold increase in IKBKAP protein abundance relative to the vehicle control) |
| --- | --- | --- |
| CC[C@H](N)Cc1cc2nc(Cl)nc(NCc3ccco3)c2s1 [Cpd 4, 6-[(2S)-2-aminobutyl]-2-chloro-N-[(furan-2-yl)methyl]thieno[3,2-d]pyrimidin-4-amine] | **** (between >0.005 μM and ≤0.02 μM) | **** (between >3.9 and <4.9) |
| Cc1c(C[C@H](C)N)sc2c(NCc3ccco3)nc(Br)nc12 [Cpd 38, 6-[(2S)-2-aminopropyl]-2-bromo-N-[(furan-2-yl)methyl]-7-methylthieno[3,2-d]pyrimidin-4-amine] | ***** (<0.005 μM) | ***** (>4.9) |
| Cc1c(C[C@H](C)N)sc2c(NCc3ccc(F)s3)nc(Cl)nc12 [Cpd 33, 6-[(2S)-2-aminopropyl]-2-chloro-N-[(5-fluorothiophen-2-yl)methyl]-7-methylthieno[3,2-d]pyrimidin-4-amine] | **** (between >0.005 μM and ≤0.02 μM) | **** (between >3.9 and <4.9) |
| Clc1nc(NCc2cccs2)c2scc(Br)c2n1 [Cpd 80, 7-bromo-2-chloro-N-[(thiophen-2-yl)methyl]thieno[3,2-d]pyrimidin-4-amine] | *** (between >0.02 μM and ≤0.5 μM) | ***** (>4.9) |
| C[C@H](N)Cc1sc2c(NCc3cccs3)nc(Cl)nc2c1-c1ccccc1 [Cpd 87, 6-[(2S)-2-aminopropyl]-2-chloro-7-phenyl-N-[(thiophen-2-yl)methyl]thieno[3,2-d]pyrimidin-4-amine] | * (EC2×>1 μM) | * (MFI<1.9) |
| COc1ccc(-c2c(C[C@H](C)N)sc3c(NCc4ccco4)nc(Cl)nc23)cc1 [Cpd 65, 6-[(2S)-2-aminopropyl]-2-chloro-N-[(furan-2-yl)methyl]-7-(4-methoxyphenyl)thieno[3,2-d]pyrimidin-4-amine] | * (EC2×>1 μM) | * (MFI<1.9) |
| Cc1c(C[C@H](C)N)sc2c(NCc3ncncc3F)nc(Cl)nc12 [Cpd 98, 6-[(2S)-2-aminopropyl]-2-chloro-N-[(5-fluoropyrimidin-4-yl)methyl]-7-methylthieno[3,2-d]pyrimidin-4-amine] | **** (between >0.005 μM and ≤0.02 μM) | ***** (>4.9) |
| CC[C@H](N)Cc1sc2c(NCc3ncco3)nc(Cl)nc2c1C [Cpd 69, 6-[(2S)-2-aminobutyl]-2-chloro-7-methyl-N-[(1,3-oxazol-2-yl)methyl]thieno[3,2-d]pyrimidin-4-amine] | **** (between >0.005 μM and ≤0.02 μM) | ***** (>4.9) |
| CC[C@H](N)Cc1sc2c(NCc3ccncc3F)nc(Cl)nc2c1C [Cpd 53, 6-[(2S)-2-aminobutyl]-2-chloro-N-[(3-fluoropyridin-4-yl)methyl]-7-methylthieno[3,2-d]pyrimidin-4-amine] | ***** (<0.005 μM) | ***** (>4.9) |
| Cc1c(C[C@@H](N)CCO)sc2c(NCc3ccco3)nc(Cl)nc12 [Cpd 97, (3S)-3-amino-4-(2-chloro-4-{[(furan-2-yl)methyl]amino}-7-methylthieno[3,2-d]pyrimidin-6-yl)butan-1-ol] | ***** (<0.005 μM) | ***** (>4.9) |
| CC[C@H](N)Cc1sc2c(NCc3ccncn3)nc(Cl)nc2c1C [Cpd 89, 6-[(2S)-2-aminobutyl]-2-chloro-7-methyl-N-[(pyrimidin-4-yl)methyl]thieno[3,2-d]pyrimidin-4-amine] | ***** (<0.005 μM) | ***** (>4.9) |
| CN[C@@H](C)Cc1sc2c(NCc3ccco3)nc(Cl)nc2c1C [Cpd 79, 2-chloro-N-[(furan-2-yl)methyl]-7-methyl-6-[(2S)-2-(methylamino)propyl]thieno[3,2-d]pyrimidin-4-amine] | *** (between >0.02 μM and ≤0.5 μM) | **** (between >3.9 and <4.9) |
| Cc1c(C[C@H](C)N)sc2c(NCc3cncs3)nc(Cl)nc12 [Cpd 74, 6-[(2S)-2-aminopropyl]-2-chloro-7-methyl-N-[(1,3-thiazol-5-yl)methyl]thieno[3,2-d]pyrimidin-4-amine] | *** (between >0.02 μM and ≤0.5 μM) | **** (between >3.9 and <4.9) |
| C[C@H](N)Cc1sc2c(NCc3cccs3)nc(C#N)nc2c1Br [Cpd 83, 6-[(2S)-2-aminopropyl]-7-bromo-4-{[(thiophen-2-yl)methyl]amino}thieno[3,2-d]pyrimidine-2-carbonitrile] | **** (between >0.005 μM and ≤0.02 μM) | ***** (>4.9) |
| C[C@H](N)Cc1cc2nc(Cl)nc(NCc3ccco3)c2s1 [Cpd 3, 6-[(2S)-2-aminopropyl]-2-chloro-N-[(furan-2-yl)methyl]thieno[3,2-d]pyrimidin-4-amine] | **** (between >0.005 μM and ≤0.02 μM) | **** (between >3.9 and <4.9) |
| C[C@H](N)Cc1sc2c(NCc3ccncc3F)nc(Cl)nc2c1Br [Cpd 68, 6-[(2S)-2-aminopropyl]-7-bromo-2-chloro-N-[(3-fluoropyridin-4-yl)methyl]thieno[3,2-d]pyrimidin-4-amine] | ***** (<0.005 μM) | ***** (>4.9) |
| COc1c(C[C@@H](N)CO)sc2c(NCc3cccs3)nc(Cl)nc12 [Cpd 99, (2R)-2-amino-3-(2-chloro-7-methoxy-4-{[(thiophen-2-yl)methyl]amino}thieno[3,2-d]pyrimidin-6-yl)propan-1-ol] | **** (between >0.005 μM and ≤0.02 μM) | *** (between >2.9 and <3.9) |
| Cc1c(C[C@H](C)N)sc2c(NCc3ccno3)nc(Cl)nc12 [Cpd 39, 6-[(2S)-2-aminopropyl]-2-chloro-7-methyl-N-[(1,2-oxazol-5-yl)methyl]thieno[3,2-d]pyrimidin-4-amine] | *** (between >0.02 μM and ≤0.5 μM) | ***** (>4.9) |
| CC[C@H](N)Cc1sc2c(NCc3ccns3)nc(Cl)nc2c1C [Cpd 62, 6-[(2S)-2-aminobutyl]-2-chloro-7-methyl-N-[(1,2-thiazol-5-yl)methyl]thieno[3,2-d]pyrimidin-4-amine] | **** (between >0.005 μM and ≤0.02 μM) | ***** (>4.9) |
| CC[C@H](N)c1sc2c(NCc3ccco3)nc(Cl)nc2c1C [Cpd 48, 6-[(1S)-1-aminopropyl]-2-chloro-N-[(furan-2-yl)methyl]-7-methylthieno[3,2-d]pyrimidin-4-amine] | *** (between >0.02 μM and ≤0.5 μM) | ** (between >1.9 and <2.9) |
| C[C@H](N)Cc1sc2c(NCc3cccs3)nc(Cl)nc2c1-c1ccc(Cl)cc1 [Cpd 88, 6-[(2S)-2-aminopropyl]-2-chloro-7-(4-chlorophenyl)-N-[(thiophen-2-yl)methyl]thieno[3,2-d]pyrimidin-4-amine] | * (EC2×>1 μM) | * (MFI<1.9) |
| Cc1c(C[C@H](C)CO)sc2c(NCc3ccco3)nc(Cl)nc12 [Cpd 66, (2S)-3-(2-chloro-4-{[(furan-2-yl)methyl]amino}-7-methylthieno[3,2-d]pyrimidin-6-yl)-2-methylpropan-1-ol] | * (EC2×>1 μM) | * (MFI<1.9) |
| Cc1c(C[C@H](C)N)sc2c(NCc3nc(F)cs3)nc(Cl)nc12 [Cpd 92, 6-[(2S)-2-aminopropyl]-2-chloro-N-[(4-fluoro-1,3-thiazol-2-yl)methyl]-7-methylthieno[3,2-d]pyrimidin-4-amine] | ***** (<0.005 μM) | ***** (>4.9) |
| Cc1ccc(CNc2nc(Cl)nc3c(C)c(C[C@H](C)N)sc23)o1 [Cpd 24, 6-[(2S)-2-aminopropyl]-2-chloro-7-methyl-N-[(5-methylfuran-2-yl)methyl]thieno[3,2-d]pyrimidin-4-amine] | *** (between >0.02 μM and ≤0.5 μM) | *** (between >2.9 and <3.9) |
| Clc1nc(NCc2ccco2)c2sccc2n1 [Cpd 2, 2-chloro-N-[(furan-2-yl)methyl]thieno[3,2-d]pyrimidin-4-amine] | * (EC2×>1 μM) | *** (between >2.9 and <3.9) |
